Source: patent US9586978B2, “Anti-viral compounds” (AbbVie Inc., priority 2009, dated 2017)

Columns and labels:
HCV genotype 1a = conditions: observed by Nettles et al.; read-out: EC50 against HCV genotype 1a; cited from earlier work
HCV genotype 1b = conditions: observed by Nettles et al.; read-out: EC50 against HCV genotype 1b; cited from earlier work
HCV genotype 3a = conditions: observed by Nettles et al.; read-out: EC50 against HCV genotype 3a; cited from earlier work
HCV genotype 4a = conditions: observed by Nettles et al.; read-out: EC50 against HCV genotype 4a; cited from earlier work
HCV genotype 5a = conditions: observed by Nettles et al.; read-out: EC50 against HCV genotype 5a; cited from earlier work
different HCV genotypes = conditions: summary over genotypes, see Nettles et al.; cited from earlier work
[1] = tested on: HCV 1a replicon L31M, Y93H or Y93N mutant; experiment: HCV 1a replicon assays in the presence of 40% HP, mutants; assay type: cell-based; conditions: versus Example 109 of the '301 application
[2] = AUC value (as defined above); assay type: in vivo; conditions: versus Example 109 of the '301 application

SMILES | EC50 (HCV genotype 1a) [pM] | EC50 (HCV genotype 1b) [pM] | EC50 (HCV genotype 3a) [pM] | EC50 (HCV genotype 4a) [pM] | EC50 (HCV genotype 5a) [pM] | EC50 (different HCV genotypes) [pM] | EC50 value, fold less than that of Example 109 of the '301 application [1] | AUC value, fold greater than that of Example 109 of the '301 application [2]
COC(=O)N[C@H](C(=O)N1CCC[C@H]1c1ncc(-c2ccc(-c3ccc(-c4cnc([C@@H]5CCCN5C(=O)[C@@H](NC(=O)OC)C(C)C)[nH]4)cc3)cc2)[nH]1)C(C)C [BMS-790052] | 50 | 9 | 127 | 12 | 33 | ≤ 200 | – | –
COC(=O)N[C@H](C(=O)N1CCC[C@H]1c1nc2cc([C@H]3CC[C@H](c4cc5[nH]c([C@@H]6CCCN6C(=O)[C@@H](NC(=O)OC)C(C)C)nc5cc4F)N3c3ccc(C(C)(C)C)cc3)c(F)cc2[nH]1)C(C)C [Example 6.1, methyl{(2S)-1-[(2S)-2-{5-[(2R,5R)-1-(4-tert-butylphenyl)-5-{5-fluoro-2-[(2S)-1-{(2S)-2-[(methoxycarbonyl)amino]-3-methylbutanoyl}pyrrolidin-2-yl]-1H-benzimidazol-6-yl}pyrrolidin-2-yl]-6-fluoro-1H-benzimidazol-2-yl}pyrrolidin-1-yl]-3-methyl-1-oxobutan-2-yl}carbamate] | – | – | – | – | – | – | at least 5 fold | about 9 fold
